In patent US20130115624A1, “Methods To Identify Modulators” (Givaudan S.A., priority 2010, published 2013):
Like-named read-outs stand apart in the source and are kept apart here.

System: Sham Transfected HEK293T/G16gust44 cells
Protocol: HEK293T/G16gust44 cells were used; they were formed as described in WO 2004/055048. The host cell line HEK-293T is commercially available from the American Tissue Culture Collection (ATCC), ATCC®#CRL-11268.
On day 0, the HEK293T/G16gust44 cells were plated in 96-well black wall, clear-bottom plates at a density of 15,000 cells per well and grown overnight in growth media (Dulbecco's modified Eagle's medium (DMEM) with 10% (v/v) heat-inactivated fetal bovine serum, 2 mM L-glutamine, 100 units/ml penicillin, 100 μg/ml streptomycin).
On day 1, the media was changed to an antibiotic-free and serum-free DMEM, and the cells were transfected with Lipofectamine 2000 (Invitorgen) according to the manufacturer's recommendations.
Per well of a 96-well plate, 150 ng of vector DNA (TAS2R41 expression vectors from example 1) was diluted in 12.5 μl of DMEM. In a second tube, 0.3 μl of Lipofectamine 2000 was diluted in 12.5 μl of DMEM and incubated for 5 min at room temperature. After the 5 min, both solutions were mixed and incubated for 20 min at RT.
The growth medium in the plate was exchanged with 50 μl of DMEM and 25 μl of the lipofectamine/DNA mixture (formed in the step above) and the cells were incubated for a further 3-4 hours at 37° in a humidified atmosphere. This mixture was then replaced with an antibiotic-free, serum-containing DMEM.
The above procedure was also carried out for HEK293T/G16gust44 cells formed as described in WO 2004/055048 with the exception that no DNA was added during the process (these cells are termed Sham transfected cells);
Each sample (receptors as well as controls) contained a final concentration of 0.02% Dimethyl sulphoxide (DMSO) to allow for comparability of all examples below.
On day 0, the HEK293T cells formed as described in example 2, were seeded in antibiotic-free growth medium (standard DMEM with 10% (v/v) heat-inactivated fetal bovine serum, 2 mM L-glutamine […]) into black wall/clear bottom 96-well plates, coated with poly(ethylenimine) (0.005% v/v) at a concentration of 15,000 cells per well and incubated for 48 hours in humidified atmosphere (37° C., 5% CO2).
Prior to performing the assay, the growth medium was discarded and the cells were left in a humidified atmosphere (37° C., 5% CO2) for 1 hour with 50 μl of loading buffer consisting of 1.5 μM Fluo-4 AM and […] probenicid (Sigma-Aldrich, St. Louis, Mo., US) in DMEM.
Following this the 96-well plate was washed 5 times with 100 μl of assay buffer (130 mM NaCl, 5 mM KCl, 10 mM 4-(2-hydroxyethyl)-1-piperazineethanesulfonic acid (HEPES), 2 mM CaCl2, and 5 mM dextrose, pH 7.4) per well, using an automated plate washer (BioTek).
The plate was then further incubated for 30 minutes at room temperature in the dark to allow for complete de-esterification of the Fluo-4. Afterwards the plate was washed 5 times with 100 μl of assay buffer per well, and reconstituted with 100 μl of assay buffer per well.
Cyclamate solutions ranging in concentration from 250 mM to 800 mM were prepared in assay buffer.
To test receptor activation 20 μl of one of these cyclamate test solutions was added to the assay buffer of at least one well of the 96 well plate. This step was repeated until all cyclamate solutions of differing concentrations had been added to at least one well. Care was taken to ensure that only one cyclamate solution was added per well. The resulting cyclamate concentrations in the well plates ranged in concentration from 25 mM to 80 mM (This is due to the dilution of the cyclamate solution in the assay buffer present in the well).
For assay reading, the plate was placed in a Fluorometric Imaging Plate Reader (FLIPR) (FLIPR-TETRA™, Molecular Devices, Sunnyvale, Calif., US).

O=S(=O)(O)NC1CCCCC1 [Cyclamate, cyclamate]
Cyclamate Average ΔF/F0 (25 mM cyclamate in well): 0.1588 | Cyclamate Average ΔF/F0 (30 mM cyclamate in well): 0.1665 | Cyclamate Average ΔF/F0 (35 mM cyclamate in well): 0.1676 | Cyclamate Average ΔF/F0 (40 mM cyclamate in well): 0.1718 | Cyclamate Average ΔF/F0 (45 mM cyclamate in well): 0.1765 | Cyclamate Average ΔF/F0 (50 mM cyclamate in well): 0.1676 | Cyclamate Average ΔF/F0 (55 mM cyclamate in well): 0.1682 | Cyclamate Average ΔF/F0 (60 mM cyclamate in well): 0.1453 | Cyclamate Average ΔF/F0 (65 mM cyclamate in well): 0.1382 | Cyclamate Average ΔF/F0 (70 mM cyclamate in well): 0.1529 | Cyclamate Average ΔF/F0 (75 mM cyclamate in well): 0.1329 | Cyclamate Average ΔF/F0 (80 mM cyclamate in well): 0.1465
